Ends that are not written are not given here. * marks the point of attachment. For = O=C*

For data set [1] the following is noted: literature statement; ref number not given; cited from earlier work. An excerpt:
Regarding factors produced by bacteria, the canonical example of molecules interacting with LPS are polymyxins. […] Polymyxins are effective antibacterial drugs that interact with LPS in the outer and inner membranes of the cell wall, ultimately causing a lethal effect. […] Colicins, a family of protein bacteriocins produced by , typically must cross the bacterial outer membrane to display bactericidal activity. Most colicins use porins and high-affinity receptors to cross the outer membrane and kill the target. However, for colicin N, there is no such high-affinity receptor, and this bacteriocin targets LPS instead. The receptor-binding domain of ColN binds to LPS near the membrane surface, and this interaction is required for its bactericidal activity. || Nisin, a peptide lantibiotic produced by , is another example of a bacteriocin that could utilize LPS as a receptor. […] The interaction described above leads to membrane disruption. The level of membrane disruption is related to the origin of the bacteria and the type of LPS as its rough type is more susceptible to nisin.

Data set [2] has as its system TLR4. The following applies: literature statement; ref number not given; cited from earlier work. An excerpt: Proteins and peptides capable of recognizing and binding LPS as well as altering its biological activity are present in both higher organisms and bacteria. In higher organisms, these polypeptides are most often involved in the immune response. One of the best-known examples is LPS-binding protein (LBP). It is an acute-phase plasma protein of mammals that forms a complex with LPS, and this complex then binds to CD14 (cluster of differentiation 14). This event initiates a signaling pathway through TLR4/MD-2 and triggers the activation of immune response. , In the absence of TLR4, MD-2 can also i ... || Regarding factors produced by bacteria, the canonical example of molecules interacting with LPS are polymyxins. […] Polymyxins are effective antibacterial drugs that interact with LPS in the outer and inner membranes of the cell wall, ultimately causing a lethal effect.

Data set [3] deals with the molecule itself. Nature of the data set: dynamic light scattering; BacSp222 alone at 5, 50 and 500 μg/mL in PBS without Ca2+ and Mg2+, incubated 15 min at 37 °C, measured at 37 °C (Prometheus Panta); performed once.

Turning to Nisin, the “interaction with LPS” value in data set [1] was “forms a molecular complex in model membranes and bacterial outer membrane extracts”.

Consider polymyxins [reference compound], for which, in data set [2], the “inhibition of LPS-induced TLR4 activation” value was “effectively block the biological effects of LPS, including TLR4 activation”. Also, the “interaction with LPS” value in data set [1] is reported as “high affinity to LPS”.

B1: BacSp222 bacteriocin (peptide)
chain: For-MAGLLRFLLSKGRALYNWAKSHVGKVWEWLKSGATYEQIKEWIENALGWR
notes: molecular mass 5.922 kDa; also called peptide BacSp222
With B1, the binding result in data set [3] is “binds”.

B2: colicin N: protein bacteriocin whose receptor-binding domain binds to LPS (protein, UniProt P08083 1-387, looked up)
Colicin-N: MGSNGADNAHNNAFGGGKNPGIGNTSGAGSNGSASSNRGNSNGWSWSNKPHKNDGFHSDGSYHITFHGDNNSKPKPGGNSGNRGNNGDGASAKVGEITITPDNSKPGRYISSNPEYSLLAKLIDAESIKGTEVYTFHTRKGQYVKVTVPDSNIDKMRVDYVNWKGPKYNNKLVKRFVSQFLLFRKEEKEKNEKEALLKASELVSGMGDKLGEYLGVKYKNVAKEVANDIKNFHGRNIRSYNEAMASLNKVLANPKMKVNKSDKDAIVNAWKQVNAKDMANKIGNLGKAFKVADLAIKVEKIREKSIEGYNTGNWGPLLLEVESWIIGGVVAGVAISLFGAVLSFLPISGLAVTALGVIGIMTISYLSSFIDANRVSNINNIISSVIR
On to B2, for which the “interaction with LPS” value in data set [1] was “targets LPS”.

Source of the values: PMC12340957, “Interactions between Lipopolysaccharide and Peptide Bacteriocin BacSp222 Influence Their Biological Activities” (ACS Infectious Diseases, 2025).
